{"source": "BindingDB's records for doi:10.7270/Q2ZW1JC6", "about": "(Nmmlsc, 2016)", "data": [{"biological_target": "Ras-related protein Rab-2A (Canis lupus familiaris, UniProt P61105)", "sequence (P61105 whole entry)": "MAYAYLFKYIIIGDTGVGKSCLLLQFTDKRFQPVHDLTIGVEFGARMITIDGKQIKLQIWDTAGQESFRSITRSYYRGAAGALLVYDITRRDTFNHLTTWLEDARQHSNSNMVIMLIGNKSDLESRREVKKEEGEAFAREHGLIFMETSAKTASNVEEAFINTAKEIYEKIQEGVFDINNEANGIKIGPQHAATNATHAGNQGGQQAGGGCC", "test": "Rab2A fluorescent GTP competition potency – biochemical, pyrazoline series, Bodipy-FL-GTP, flow cytometry, multiplex, SAR follow-up (AID 2045)", "conditions": "not given", "units": {"EC50": "µM"}, "values": [{"smiles": "Cc1onc(-c2ccccc2)c1-c1ccc(S(N)(=O)=O)cc1", "EC50": "> 30"}, {"smiles": "O=[N+]([O-])c1ccc([N+]2=N[C-](c3ccccc3)CC2c2ccccc2)cc1", "note": "(configuration not stated)", "EC50": "> 30"}, {"smiles": "Brc1ccc(N2N=C(c3ccccc3)CC2c2ccccc2)cc1", "note": "(configuration not stated)", "EC50": "> 30"}, {"smiles": "COc1ccccc1C1CC(c2ccccc2)=NN1c1ccccc1", "note": "(configuration not stated)", "EC50": "> 30"}, {"smiles": "Clc1cccc(N2N=C(c3ccccc3)CC2c2ccccc2)c1", "note": "(configuration not stated)", "EC50": "> 30"}, {"smiles": "Clc1ccc(N2N=C(c3ccccc3)CC2c2ccccc2)cc1", "note": "(configuration not stated)", "EC50": "> 30"}, {"smiles": "CC(=O)Oc1ccc(C2=NN(c3ccccc3)C(c3ccccc3)C2)cc1", "note": "(configuration not stated)", "EC50": "> 30"}, {"smiles": "O=C(O)c1ccc(N2N=C(c3ccccc3)CC2c2ccccc2)cc1", "note": "(configuration not stated)", "EC50": "> 30"}, {"smiles": "COc1ccc(C2=NN(c3ccccc3)C(c3ccccc3C(F)(F)F)C2)cc1", "note": "(configuration not stated)", "EC50": "> 30"}, {"smiles": "O=S(=O)(c1ccc(N2N=C(c3ccccc3)CC2c2ccccc2)cc1)C(F)F", "note": "(configuration not stated)", "EC50": "> 30"}, {"smiles": "CCc1ccc(C2=NN(c3ccc(S(N)(=O)=O)cc3)C(c3ccc(F)cc3)C2)cc1", "note": "(configuration not stated)", "EC50": "> 30"}, {"smiles": "CN(C)c1ccc(C2C[C-](c3ccccc3)N=[N+]2c2ccc([N+](=O)[O-])cc2)cc1", "note": "(configuration not stated)", "EC50": "> 30"}, {"smiles": "COc1ccc(C2CC(c3ccc(F)cc3)=NN2c2cccc(F)c2)cc1OC", "note": "(configuration not stated)", "EC50": "> 30"}, {"smiles": "COc1ccc(C2CC(c3ccccc3)=NN2c2ccc(Cl)c(C(=O)O)c2)cc1", "note": "(configuration not stated)", "EC50": "> 30"}, {"smiles": "COc1ccc(C2CC(c3ccc(Cl)cc3)=NN2c2ccc(S(N)(=O)=O)cc2)cc1", "note": "(configuration not stated)", "EC50": "> 30"}, {"smiles": "Cc1ccc(C2CC(c3ccccc3)=NN2c2ccc(S(N)(=O)=O)cc2)cc1", "note": "(configuration not stated)", "EC50": "> 30"}, {"smiles": "Cc1cccc(C2CC(c3ccccc3)=NN2c2ccc(S(N)(=O)=O)cc2)c1", "note": "(configuration not stated)", "EC50": "> 30"}, {"smiles": "COc1ccc(C2CC(c3ccccc3OC)=NN2c2ccc(S(N)(=O)=O)cc2)cc1", "note": "(configuration not stated)", "EC50": "> 30"}, {"smiles": "COc1ccc(C2CC(c3ccc(C)cc3)=NN2c2ccc(S(N)(=O)=O)cc2)cc1", "note": "(configuration not stated)", "EC50": "> 30"}, {"smiles": "COc1ccc(C2CC(c3cccc(C(F)(F)F)c3)=NN2c2ccc(S(N)(=O)=O)cc2)cc1", "note": "(configuration not stated)", "EC50": "> 30"}, {"smiles": "COc1ccc(C2CC(c3cccc(N(C)C)c3)=NN2c2ccc(S(N)(=O)=O)cc2)cc1", "note": "(configuration not stated)", "EC50": "> 30"}, {"smiles": "COc1ccc(C2CC(c3cccnc3)=NN2c2ccc(S(N)(=O)=O)cc2)cc1", "note": "(configuration not stated)", "EC50": "> 30"}, {"smiles": "COc1ccc(C2CC(c3ccncc3)=NN2c2ccc(S(N)(=O)=O)cc2)cc1", "note": "(configuration not stated)", "EC50": "> 30"}, {"smiles": "Fc1ccccc1C1CC(c2ccc(Br)cc2)=NN1c1ccc(Br)cc1", "note": "(configuration not stated) [2,5-bis(4-bromophenyl)-3-(2-fluorophenyl)-3,4-dihydropyrazole]", "EC50": "> 30"}, {"smiles": "COc1ccc(C2CC(c3ccc(F)cc3)=NN2c2cc(Cl)ccc2Cl)cc1", "note": "(configuration not stated) [2-(2,5-dichlorophenyl)-5-(4-fluorophenyl)-3-(4-methoxyphenyl)-3,4-dihydropyrazole]", "EC50": "> 30"}, {"smiles": "COc1ccc(C2=NN(c3ccc(Cl)c(Cl)c3)C(c3ccc(OC)cc3)C2)cc1", "note": "(configuration not stated) [2-(3,4-dichlorophenyl)-3,5-bis(4-methoxyphenyl)-3,4-dihydropyrazole]", "EC50": "> 30"}, {"smiles": "Fc1ccc(C2=NN(c3cccc(Br)c3)C(c3ccccc3)C2)cc1", "note": "(configuration not stated) [2-(3-bromophenyl)-5-(4-fluorophenyl)-3-phenyl-3,4-dihydropyrazole]", "EC50": "> 30"}, {"smiles": "COc1ccc(C2CC(c3ccccc3)=NN2c2ccc(Cl)c(C(=O)O)c2)cc1OC", "note": "(configuration not stated) [2-chloro-5-[3-(3,4-dimethoxyphenyl)-5-phenyl-3,4-dihydropyrazol-2-yl]benzoic acid]", "EC50": "> 30"}, {"smiles": "COc1ccc(C2=NN(c3cccc(F)c3)C(c3ccc(Cl)cc3)C2)cc1", "note": "(configuration not stated) [3-(4-chlorophenyl)-2-(3-fluorophenyl)-5-(4-methoxyphenyl)-3,4-dihydropyrazole]", "EC50": "> 30"}, {"smiles": "COc1ccc(C2C[C-](c3ccccc3)N=[N+]2c2ccc([N+](=O)[O-])cc2)cc1", "note": "(configuration not stated) [3-(4-methoxyphenyl)-2-(4-nitrophenyl)-5-phenyl-3,4-dihydropyrazole]", "EC50": "> 30"}, {"smiles": "CN(C)c1ccc(C2CC(c3ccccc3)=NN2c2ccccc2)cc1", "note": "(configuration not stated) [4-(2,5-diphenyl-3,4-dihydropyrazol-3-yl)-N,N-dimethylaniline]", "EC50": "> 30"}, {"smiles": "NS(=O)(=O)c1ccc(N2N=C(c3ccccc3)CC2c2ccccc2)cc1", "note": "(configuration not stated) [4-(3,5-diphenyl-3,4-dihydropyrazol-2-yl)benzenesulfonamide]", "EC50": "> 30"}, {"smiles": "NS(=O)(=O)c1ccc(N2N=C(c3ccccc3)CC2c2ccccc2Br)cc1", "note": "(configuration not stated) [4-[3-(2-bromophenyl)-5-phenyl-3,4-dihydropyrazol-2-yl]benzenesulfonamide]", "EC50": "> 30"}, {"smiles": "COc1ccccc1C1CC(c2ccccc2)=NN1c1ccc(S(N)(=O)=O)cc1", "note": "(configuration not stated) [4-[3-(2-methoxyphenyl)-5-phenyl-3,4-dihydropyrazol-2-yl]benzenesulfonamide]", "EC50": "> 30"}, {"smiles": "COc1cccc(C2CC(c3ccccc3)=NN2c2ccc(S(N)(=O)=O)cc2)c1", "note": "(configuration not stated) [4-[3-(3-methoxyphenyl)-5-phenyl-3,4-dihydropyrazol-2-yl]benzenesulfonamide]", "EC50": "> 30"}, {"smiles": "NS(=O)(=O)c1ccc(N2N=C(c3ccccc3)CC2c2ccc(Cl)cc2)cc1", "note": "(configuration not stated) [4-[3-(4-chlorophenyl)-5-phenyl-3,4-dihydropyrazol-2-yl]benzenesulfonamide]", "EC50": "> 30"}, {"smiles": "COc1ccc(C2CC(c3ccc(C(F)(F)F)cc3)=NN2c2ccc(S(N)(=O)=O)cc2)cc1", "note": "(configuration not stated) [4-[3-(4-methoxyphenyl)-5-[4-(trifluoromethyl)phenyl]-3,4-dihydropyrazol-2-yl]benzenesulfonamide]", "EC50": "> 30"}, {"smiles": "COc1ccc(C2CC(C)=NN2c2ccc(S(N)(=O)=O)cc2)cc1", "note": "(configuration not stated) [4-[3-(4-methoxyphenyl)-5-methyl-3,4-dihydropyrazol-2-yl]benzenesulfonamide]", "EC50": "> 30"}, {"smiles": "COc1ccc(C2CC(c3ccsc3)=NN2c2ccc(S(N)(=O)=O)cc2)cc1", "note": "(configuration not stated) [4-[3-(4-methoxyphenyl)-5-thiophen-3-yl-3,4-dihydropyrazol-2-yl]benzenesulfonamide]", "EC50": "> 30"}, {"smiles": "COc1ccc(C2CC(c3ccccc3Cl)=NN2c2ccc(S(N)(=O)=O)cc2)cc1", "note": "(configuration not stated) [4-[5-(2-chlorophenyl)-3-(4-methoxyphenyl)-3,4-dihydropyrazol-2-yl]benzenesulfonamide]", "EC50": "> 30"}, {"smiles": "COc1ccc(C2CC(c3cccc(F)c3)=NN2c2ccc(S(N)(=O)=O)cc2)cc1", "note": "(configuration not stated) [4-[5-(3-fluorophenyl)-3-(4-methoxyphenyl)-3,4-dihydropyrazol-2-yl]benzenesulfonamide]", "EC50": "> 30"}, {"smiles": "COc1ccc(C2CC(c3cccc(OC)c3)=NN2c2ccc(S(N)(=O)=O)cc2)cc1", "note": "(configuration not stated) [4-[5-(3-methoxyphenyl)-3-(4-methoxyphenyl)-3,4-dihydropyrazol-2-yl]benzenesulfonamide]", "EC50": "> 30"}, {"smiles": "NS(=O)(=O)c1ccc(N2N=C(c3ccc(Br)cc3)CC2c2ccc(F)cc2)cc1", "note": "(configuration not stated) [4-[5-(4-bromophenyl)-3-(4-fluorophenyl)-3,4-dihydropyrazol-2-yl]benzenesulfonamide]", "EC50": "> 30"}]}, {"biological_target": "Ras-related protein Rab-2A (Canis lupus familiaris, UniProt P61105)", "test": "Rab2A fluorescent GTP competition potency – biochemical, pyrazoline series, Bodipy-FL-GTP, flow cytometry, multiplex, SAR follow-up (AID 2045)", "conditions": "inactive by the depositor's call", "units": {"EC50": "µM"}, "values": [{"smiles": "NS(=O)(=O)c1ccc(N2N=C(c3ccc(Cl)cc3)CC2c2ccccc2)cc1", "note": "(configuration not stated)", "EC50": 0.056}, {"smiles": "COc1ccc(C2=NN(c3cccc(F)c3)C(c3ccc(OC)cc3)C2)cc1", "note": "(configuration not stated) [2-(3-fluorophenyl)-3,5-bis(4-methoxyphenyl)-3,4-dihydropyrazole]", "EC50": 1}, {"smiles": "COc1ccc(C2CC(c3ccccc3)=NN2c2cccc(S(N)(=O)=O)c2)cc1", "note": "(configuration not stated) [3-[3-(4-methoxyphenyl)-5-phenyl-3,4-dihydropyrazol-2-yl]benzenesulfonamide]", "EC50": 0.074}, {"smiles": "COc1ccc(C2=NN(c3ccc(S(N)(=O)=O)cc3)C(c3ccc(OC)cc3)C2)cc1", "note": "(configuration not stated) [4-[3,5-bis(4-methoxyphenyl)-3,4-dihydropyrazol-2-yl]benzenesulfonamide]", "EC50": 1.69}]}]}
